Test results: US6660872B1, “Method of producing methoxyimino acetic amide” (Bayer Aktiengesellschaft, priority 1999, dated 2003)
Values joined by “and” are separate entries in the source; they are usually repeats but may differ in a detail not shown here. Equal values may be shown once.

Assay: determination of the logP-Values by HPLC according to EEC-Direktive 79/831 Annex V. A8
Format: physicochemical
Conditions: gradient method, acetonitrile/0,1% aqueous phosphoric acid; for chromatographic logP: HPLC (gradient, acetonitrile/0.1% aqueous phosphoric acid), read-out: log p
Description: The determination of the logP-Values was carried out for all examples according to the EEC-Direktive 79/831 Annex V. A8 by HPLC (gradient method, acetonitrile/0,1% aqueous phosphoric acid).

SMILES | chromatographic logP | log p
COC(=O)C(=O)c1ccccc1O [methyl 2-hydroxyphenylglyoxylate] | 1.87 | 
CO/N=C(/C(=O)OC)c1ccccc1O [methyl E-2-(2-hydroxyphenyl)-2-methoxyimino-acetate] | 1.48 | 
CNC(=O)/C(=N/OC)c1ccccc1Oc1ncnc(Oc2cccc(Cl)c2C)c1F [XI-1, E-isomer, N-methyl-E-2-[2-(5-fluoro-2′-methyl-3′-chlorophenoxypyrimidin-4-yloxy)phenyl]-2-methoxyiminoacetamide] | 3.51 | 3.50
CNC(=O)/C(=N/OC)c1ccccc1O [N-methyl-E-2-(2-hydroxyphenyl)-2-methoxyimino-acetamide] | 0.98 | 
O=C1Oc2ccccc2/C1=N\O [E-benzofuran-2,3-dione 3-oxime] | 1.55 | 
CNC(=O)/C(=N\OC)c1ccccc1O [N-methyl-Z-2-(2-hydroxyphenyl)-2-methoxyiminoacetamide] | 1.29 | 
CNC(=O)/C(=N\OC)c1ccccc1Oc1ncnc(Oc2ccccc2Cl)c1F (single isomer, unassigned) [XI-2, Z-isomer, N-methyl-Z-2-[2-(5-fluoro-2′-chlorophenoxypyrimidin-4-yloxy)-phenyl]-2-methoxyiminoacetamide] |  | 2.95 and 2.94
CNC(=O)/C(=N\OC)c1ccccc1Oc1ncnc(F)c1F [N-methyl-Z-2-[2-(5,6-difluoro-pyrimidin-4-yloxy)phenyl]-2-methoxyiminoacetamide] | 1.87 | 
COC(=O)/C(=N/O)c1ccccc1O [methyl E-2-(2-hydroxyphenyl)-2-hydroxyimino-acetate] | 0.95 | 

Next, values leading:

chromatographic logP | log p | SMILES
1.68 | 1.70 | COC(=O)/C(=N\O)c1ccccc1O [methyl Z-2-(2-hydroxyphenyl)-2-hydroxyimino-acetate]
1.95 |  | CNC(=O)/C(=N/OC)c1ccccc1Oc1ncnc(F)c1F [N-methyl-E-2-[2-(5,6-difluoropyrimidin-4-yloxy)-phenyl]-2-methoxyiminoacetamide]
3.44 | 3.43 | CNC(=O)/C(=N\OC)c1ccccc1Oc1ncnc(Oc2cccc(Cl)c2C)c1F [XI-1, Z-isomer, N-methyl-Z-2-[2-(5-fluoro-2′-methyl-3′-chlorophenoxy-pyrimidin-4-yloxy)phenyl]-2-methoxyiminoacetamide]
2.39 | 2.38 and 2.37 | CO/N=C(\C(=O)OC)c1ccccc1O [methyl Z-2-(2-hydroxyphenyl)-2-methoxyimino-acetate]
 | 3.01 | CNC(=O)/C(=N/OC)c1ccccc1Oc1ncnc(Oc2ccccc2Cl)c1F (single isomer, unassigned) [XI-2, E-isomer, N-methyl-E-2-[2-(5-fluoro-2′-chlorophenoxypyrimidin-4-yloxy)phenyl]-2-methoxyiminoacetamide]
